Converted amounts (≈) assume the structure as drawn. Values belong to the compound of their own block, whether it stands above or below them. The source made the active and inactive calls. No cut-off for these calls is given here. Non-standard residues stand in square brackets, D forms with d. Residues, ends and D or L forms follow the SMILES beside them. *: point of attachment. NH(2-(1-naphthyl)ethyl) = c1ccc2c(CCN*)cccc2c1; Tryptamide = c1ccc2c(CCN*)c[nH]c2c1; NMeF = CN[C@@H](Cc1ccccc1)C(=O)O; NMeL = CN[C@@H](CC(C)C)C(=O)O; NHPhenethyl = c1ccc(CCN*)cc1; NMeV = CN[C@H](C(=O)O)C(C)C; NMeC = CN[C@@H](CS)C(=O)O; NMeA = CN[C@@H](C)C(=O)O
How the values were obtained:
[1] = tested on: Trypanosoma brucei rhodesiense; experiment: Antiprotozoal activity against trypomastigote stage of Trypanosoma brucei rhodesiense STIB900 after 72 hrs by Alamar Blue assay; assay type: functional, organism-based; conditions: for IC50: STIB900, 72 h
Plasmodium falciparum = experiment: Antiprotozoal activity against IEF stage of Plasmodium falciparum NF54 after 48 hrs by [3H]-hypoxanthine incorporation assay; assay type: functional, organism-based
Escherichia coli = experiment: Antibacterial activity against Escherichia coli ATCC 25922 assessed as growth inhibition up to 128 ug/ml; assay type: functional, organism-based
Staphylococcus aureus [2] = experiment: Antibacterial activity against methicillin-resistant Staphylococcus aureus ATCC 43300 assessed as growth inhibition up to 128 ug/ml; assay type: functional, organism-based
Staphylococcus aureus [3] = experiment: Antibacterial activity against Staphylococcus aureus ATCC 29213 assessed as growth inhibition up to 128 ug/ml; assay type: functional, organism-based
Enterococcus faecalis = experiment: Antibacterial activity against Enterococcus faecalis ATCC 29212 assessed as growth inhibition up to 128 ug/ml; assay type: functional, organism-based
Pseudomonas aeruginosa = experiment: Antibacterial activity against Pseudomonas aeruginosa ATCC 27853 assessed as growth inhibition up to 128 ug/ml; assay type: functional, organism-based
Micrococcus luteus = experiment: Antibacterial activity against Micrococcus luteus ATCC 9341 assessed as growth inhibition up to 128 ug/ml; assay type: functional, organism-based
[4] = Passive permeability of the compound at 500 uM after 5 hrs by PAMPA; assay type: ADME
[5] = Half life in Galleria mellonella hemolymph plasma at 0.5 mM by HPLC-MS method; assay type: ADME, cell-free

Structure (SMILES): CN[C@@H](Cc1ccccc1)C(=O)N(C)[C@@H](Cc1ccccc1)C(=O)N(C)[C@@H](Cc1ccccc1)C(=O)N(C)[C@@H](Cc1ccccc1)C(=O)N(C)[C@@H](Cc1ccccc1)C(=O)N(C)[C@@H](Cc1ccccc1)C(=O)NCCc1ccccc1 (H-[NMeF][NMeF][NMeF][NMeF][NMeF][NMeF]-NHPhenethyl)
Activity [1]: Active

IC50 (Plasmodium falciparum): 0.1 µg/mL (≈ 0.157 µM)
Structure (SMILES): CN[C@@H](Cc1ccccc1)C(=O)N(C)[C@H](C(=O)N(C)[C@@H](CC(C)C)C(=O)N(C)[C@H](C(=O)NCCc1ccccc1)C(C)C)C(C)C (H-[NMeF][NMeV][NMeL][NMeV]-NHPhenethyl)

IC50 (Plasmodium falciparum): 31 µg/mL (≈ 52.7 µM)
Structure (SMILES): CN[C@@H](CC(C)C)C(=O)N(C)[C@@H](CC(C)C)C(=O)N(C)[C@@H](CC(C)C)C(=O)N(C)[C@@H](C)C(=O)NCCc1ccccc1 (H-[NMeL][NMeL][NMeL][NMeA]-NHPhenethyl)

IC50 [1]: 5.6 µg/mL (≈ 9.03 µM)
Structure (SMILES): CN[C@@H](CC(C)C)C(=O)N(C)[C@@H](CC(C)C)C(=O)N(C)[C@@H](CC(C)C)C(=O)N(C)[C@@H](CS)C(=O)NCCc1ccccc1 (H-[NMeL][NMeL][NMeL][NMeC]-NHPhenethyl)

IC50 [1]: 7.5 µg/mL (≈ 11.2 µM)
Structure (SMILES): CN[C@@H](CC(C)C)C(=O)N(C)[C@@H](CC(C)C)C(=O)N(C)[C@@H](CC(C)C)C(=O)N(C)[C@@H](CS)C(=O)NCCc1cccc2ccccc12 (H-[NMeL][NMeL][NMeL][NMeC]-{NH(2-(1-naphthyl)ethyl)})

IC50 (Plasmodium falciparum): 0.6 µg/mL (≈ 0.897 µM)
Structure (SMILES): CN[C@@H](CC(C)C)C(=O)N(C)[C@@H](CC(C)C)C(=O)N(C)[C@@H](CC(C)C)C(=O)N(C)[C@@H](CC(C)C)C(=O)NCCc1c[nH]c2ccccc12 (H-[NMeL][NMeL][NMeL][NMeL]-Tryptamide)

IC50 [1]: 1 µg/mL (≈ 1.47 µM)
Structure (SMILES): CN[C@@H](CC(C)C)C(=O)N(C)[C@@H](CC(C)C)C(=O)N(C)[C@@H](CC(C)C)C(=O)N(C)[C@@H](CC(C)C)C(=O)NCCc1cccc2ccccc12 (H-[NMeL][NMeL][NMeL][NMeL]-{NH(2-(1-naphthyl)ethyl)})

Structure (SMILES): CN[C@@H](CC(C)C)C(=O)N(C)[C@@H](CC(C)C)C(=O)N(C)[C@@H](CC(C)C)C(=O)N(C)[C@@H](CC(C)C)C(=O)N(C)[C@@H](CC(C)C)C(=O)N(C)[C@@H](CC(C)C)C(=O)NCCc1ccccc1 (H-[NMeL][NMeL][NMeL][NMeL][NMeL][NMeL]-NHPhenethyl)
growth inhibition (GI) (Escherichia coli): inactive
growth inhibition (GI) (Staphylococcus aureus [2]): inactive
growth inhibition (GI) (Staphylococcus aureus [3]): inactive
Activity [1]: Active
growth inhibition (GI) (Enterococcus faecalis): inactive
growth inhibition (GI) (Pseudomonas aeruginosa): inactive
growth inhibition (GI) (Micrococcus luteus): inactive

Structure (SMILES): CN[C@@H](CC(C)C)C(=O)N(C)[C@@H](CC(C)C)C(=O)N(C)[C@@H](CC(C)C)C(=O)N(C)[C@@H](CC(C)C)C(=O)N(C)[C@@H](CC(C)C)C(=O)N(C)[C@@H](CC(C)C)C(=O)N(C)[C@@H](CC(C)C)C(=O)NCCc1ccccc1 (H-[NMeL][NMeL][NMeL][NMeL][NMeL][NMeL][NMeL]-NHPhenethyl)
Activity [1]: Active

IC50 [1]: 3 µg/mL (≈ 5.19 µM)
Structure (SMILES): CN[C@H](C(=O)N(C)[C@H](C(=O)N(C)[C@H](C(=O)N(C)[C@@H](CS)C(=O)NCCc1ccccc1)C(C)C)C(C)C)C(C)C (H-[NMeV][NMeV][NMeV][NMeC]-NHPhenethyl)

permeability [4]: Permeable
Structure (SMILES): CN[C@H](C(=O)N(C)[C@H](C(=O)N(C)[C@H](C(=O)N(C)[C@@H](Cc1ccccc1)C(=O)NCCc1ccccc1)C(C)C)C(C)C)C(C)C (H-[NMeV][NMeV][NMeV][NMeF]-NHPhenethyl)

permeability [4]: Permeable
Structure (SMILES): CN[C@H](C(=O)N(C)[C@H](C(=O)N(C)[C@H](C(=O)N(C)[C@@H](CC(C)C)C(=O)NCCc1ccccc1)C(C)C)C(C)C)C(C)C (H-[NMeV][NMeV][NMeV][NMeL]-NHPhenethyl)
half-life at 500 µM [5]: > 4 h

Structure (SMILES): CN[C@H](C(=O)N(C)[C@H](C(=O)N(C)[C@H](C(=O)N(C)[C@H](C(=O)N(C)[C@H](C(=O)NCCc1ccccc1)C(C)C)C(C)C)C(C)C)C(C)C)C(C)C (H-[NMeV][NMeV][NMeV][NMeV][NMeV]-NHPhenethyl)
Activity [1]: Active

Structure (SMILES): CN[C@H](C(=O)N(C)[C@H](C(=O)N(C)[C@H](C(=O)N(C)[C@H](C(=O)N(C)[C@H](C(=O)N(C)[C@@H](Cc1ccccc1)C(=O)NCCc1ccccc1)C(C)C)C(C)C)C(C)C)C(C)C)C(C)C (H-[NMeV][NMeV][NMeV][NMeV][NMeV][NMeF]-NHPhenethyl)
growth inhibition (GI) (Escherichia coli): inactive
growth inhibition (GI) (Staphylococcus aureus [2]): inactive
growth inhibition (GI) (Staphylococcus aureus [3]): inactive
growth inhibition (GI) (Enterococcus faecalis): inactive
growth inhibition (GI) (Pseudomonas aeruginosa): inactive
growth inhibition (GI) (Micrococcus luteus): inactive

Structure (SMILES): CN[C@H](C(=O)N(C)[C@H](C(=O)N(C)[C@H](C(=O)N(C)[C@H](C(=O)N(C)[C@H](C(=O)N(C)[C@@H](CC(C)C)C(=O)NCCc1ccccc1)C(C)C)C(C)C)C(C)C)C(C)C)C(C)C (H-[NMeV][NMeV][NMeV][NMeV][NMeV][NMeL]-NHPhenethyl)
growth inhibition (GI) (Escherichia coli): inactive
growth inhibition (GI) (Staphylococcus aureus [2]): inactive
growth inhibition (GI) (Staphylococcus aureus [3]): inactive
growth inhibition (GI) (Enterococcus faecalis): inactive
growth inhibition (GI) (Pseudomonas aeruginosa): inactive
growth inhibition (GI) (Micrococcus luteus): inactive

Structure (SMILES): CN[C@H](C(=O)N(C)[C@H](C(=O)N(C)[C@H](C(=O)N(C)[C@H](C(=O)N(C)[C@H](C(=O)N(C)[C@H](C(=O)NCCc1ccccc1)C(C)C)C(C)C)C(C)C)C(C)C)C(C)C)C(C)C (H-[NMeV][NMeV][NMeV][NMeV][NMeV][NMeV]-NHPhenethyl)
growth inhibition (GI) (Escherichia coli): inactive
growth inhibition (GI) (Staphylococcus aureus [2]): inactive
growth inhibition (GI) (Staphylococcus aureus [3]): inactive
Activity [1]: Active
growth inhibition (GI) (Enterococcus faecalis): inactive
growth inhibition (GI) (Pseudomonas aeruginosa): inactive
growth inhibition (GI) (Micrococcus luteus): inactive

Structure (SMILES): CN[C@H](C(=O)N(C)[C@H](C(=O)N(C)[C@H](C(=O)N(C)[C@H](C(=O)N(C)[C@H](C(=O)N(C)[C@H](C(=O)N(C)[C@H](C(=O)NCCc1ccccc1)C(C)C)C(C)C)C(C)C)C(C)C)C(C)C)C(C)C)C(C)C (H-[NMeV][NMeV][NMeV][NMeV][NMeV][NMeV][NMeV]-NHPhenethyl)
Activity [1]: Active
